# Values of other authors, collected in EP4537663A1, “INCLUSION COMPLEX COMPRISING TRYPTOPHAN AND ARGININE; FERTILISING, BIOSTIMULANT AND ANTIMICROBIAL COMPOSITION COMPRISING SAME; PRODUCTION METHOD THEREOF; AND USE THEREOF” (Universidad de Valladolid, priority 2022, dated 2023).
# Settings: at 25°C
smiles,measurement,value
N[C@@H](Cc1c[nH]c2ccccc12)C(=O)O [tryptophan],solubility in water,~11.4 mg/mL
